The source made the active and inactive calls. The rule behind the calls is not given here.
What was measured:
[1] = Inhibition of steroid 5-alpha-reductase activity in Sprague-Dawley rat liver microsomes after 10 mins; set-up: species or system Microsome
Rattus norvegicus [2] = species on record: Rattus norvegicus; assay: Inhibition of steroid 5-alpha-reductase activity in Sprague-Dawley rat liver microsomes at 113 uM after 10 mins; conditions: Microsome
[3] = biological target: T1, Androgen receptor (Homo sapiens) (UniProt P10275); assay: Displacement of dihydrotestosterone from human recombinant AR ligand binding domain at 15 uM by fluorescence polarization method
T1 sequence (whole entry): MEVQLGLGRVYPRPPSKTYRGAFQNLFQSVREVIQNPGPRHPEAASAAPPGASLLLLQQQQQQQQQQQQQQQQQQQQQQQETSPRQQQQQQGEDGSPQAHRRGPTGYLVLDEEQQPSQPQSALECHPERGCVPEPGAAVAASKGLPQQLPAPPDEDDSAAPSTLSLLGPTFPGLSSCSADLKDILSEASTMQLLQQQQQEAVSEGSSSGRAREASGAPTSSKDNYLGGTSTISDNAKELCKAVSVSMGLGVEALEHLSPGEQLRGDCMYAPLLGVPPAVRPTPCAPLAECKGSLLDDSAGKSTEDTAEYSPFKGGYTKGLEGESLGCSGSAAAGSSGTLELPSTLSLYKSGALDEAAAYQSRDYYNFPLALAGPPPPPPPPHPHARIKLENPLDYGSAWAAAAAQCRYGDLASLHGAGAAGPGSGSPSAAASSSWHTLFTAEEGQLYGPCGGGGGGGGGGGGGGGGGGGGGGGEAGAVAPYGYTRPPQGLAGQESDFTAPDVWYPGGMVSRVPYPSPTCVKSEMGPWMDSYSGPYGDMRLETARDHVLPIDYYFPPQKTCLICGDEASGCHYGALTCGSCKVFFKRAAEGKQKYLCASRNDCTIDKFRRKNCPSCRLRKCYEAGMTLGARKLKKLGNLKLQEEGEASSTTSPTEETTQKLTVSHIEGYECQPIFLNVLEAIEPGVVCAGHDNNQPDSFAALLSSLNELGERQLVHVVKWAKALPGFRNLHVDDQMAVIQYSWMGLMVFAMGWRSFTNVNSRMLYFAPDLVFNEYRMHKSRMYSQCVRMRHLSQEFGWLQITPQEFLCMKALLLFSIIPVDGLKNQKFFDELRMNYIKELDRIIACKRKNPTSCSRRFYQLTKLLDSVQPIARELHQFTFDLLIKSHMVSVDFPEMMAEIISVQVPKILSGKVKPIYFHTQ

LNCaP [4] = assay: Growth inhibition of human LNCaP cells after 3 days; format: functional, cell-based
LNCaP [5] = assay: Growth inhibition of human LNCaP cells in presence of testosterone after 3 days; format: functional, cell-based
LNCaP [6] = assay: Growth inhibition of human LNCaP cells in presence of dihydrotestosterone after 3 days; format: functional, cell-based
Rattus norvegicus [7] = assay: Inhibition of testosterone induced ventral prostate growth in Sprague-Dawley rat at 0.1 mg/kg/day, po after 7 days; format: functional; conditions: Prostate gland, 168 h
Rattus norvegicus [8] = assay: Inhibition of testosterone induced ventral prostate growth in Sprague-Dawley rat at 0.001 mg/kg/day, po after 7 days; format: functional, Prostate gland; set-up: scale not given: the % may be the effect or the level left

IC50 [1] | inhibition (Rattus norvegicus [2]) | Activity [3] | Structure (SMILES) | Activity (LNCaP [4]) | Activity (LNCaP [5]) | Activity (LNCaP [6]) | inhibition in vivo at 0.1 mg/kg/day (Rattus norvegicus [7]) | Activity (Rattus norvegicus [8])
730 nM | – | – | CC(C)(C)NC(=O)[C@H]1CC[C@H]2[C@@H]3CC[C@H]4NC(=O)C=C[C@]4(C)[C@H]3CC[C@]12C [FINASTERIDE] | – | – | – | – | –
– | 37% | 50% | C/C(=C\CC[C@@H](C)[C@H]1CC[C@@]2(C)C3=CC[C@H]4C(C)(C)[C@@H](O)CC[C@]4(C)C3=CC[C@]12C)CO [GANODEROL B] | inactive | Dose-dependent effect | Dose-dependent effect | 49% | 31%

— ChEMBL document CHEMBL1139983, “The anti-androgen effect of ganoderol B isolated from the fruiting body of Ganoderma lucidum” (Bioorg Med Chem, 2007)
